ChEMBL document CHEMBL1201862, “PubChem BioAssay data set” (2004)
Active and inactive are the calls of the source.

How the values were obtained:
[1] = target: T1, Polyadenylate-binding protein 1 (Homo sapiens, UniProt P11940); assay: PABP1 MLLE–PAM2 interaction inhibitors, dose response, miRNA deadenylation inhibitor project, biochemical, fluorescence polarization, Cy5-PAM2 peptide, secondary (AID 602260); type: functional; conditions: read-out: IC50_Mean
[2] = target: T1, Polyadenylate-binding protein 1; assay: PABP1 MLLE–PAM2 binding inhibitor potency, dose response, biochemical, fluorescence polarization, FITC-PAM2 peptide (AID 602259); type: functional; conditions: read-out: IC50_Mean
Large T antigen = Large T antigen (Simian virus 40, UniProt P03070); type: functional, Betapolyomavirus macacae;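 further: Confirmatory-stage PubChem screen for compounds that inhibit SV40 T antigen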
Sequence of Large T antigen (P03070 whole entry): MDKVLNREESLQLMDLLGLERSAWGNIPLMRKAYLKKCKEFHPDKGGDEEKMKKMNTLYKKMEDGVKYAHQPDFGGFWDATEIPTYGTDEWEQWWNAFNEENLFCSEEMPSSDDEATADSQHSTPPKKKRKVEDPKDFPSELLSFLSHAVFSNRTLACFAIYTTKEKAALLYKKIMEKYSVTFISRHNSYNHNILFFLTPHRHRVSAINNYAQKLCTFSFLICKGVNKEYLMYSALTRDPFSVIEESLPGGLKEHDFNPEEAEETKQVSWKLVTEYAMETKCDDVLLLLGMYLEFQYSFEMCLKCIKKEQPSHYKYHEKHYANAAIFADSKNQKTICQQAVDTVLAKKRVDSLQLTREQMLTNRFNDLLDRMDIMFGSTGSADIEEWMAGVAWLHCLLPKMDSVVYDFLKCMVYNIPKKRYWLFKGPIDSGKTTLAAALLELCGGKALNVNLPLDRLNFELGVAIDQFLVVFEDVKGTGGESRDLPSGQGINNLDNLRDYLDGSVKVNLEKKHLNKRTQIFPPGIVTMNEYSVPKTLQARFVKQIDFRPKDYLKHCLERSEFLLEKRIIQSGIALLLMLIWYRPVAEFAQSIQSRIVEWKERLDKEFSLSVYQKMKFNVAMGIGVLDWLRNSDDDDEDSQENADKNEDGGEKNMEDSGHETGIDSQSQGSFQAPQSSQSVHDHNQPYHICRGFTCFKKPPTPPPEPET

[3] = target: Dual specificity tyrosine-phosphorylation-regulated kinase 1A (Rattus norvegicus, UniProt Q63470); type: biochemical, Homo sapiens
Vero [4] = assay: cells; type: functional, cell-based; conditions: Chlorocebus sabaeus
[5] = cytotoxicity toward NIH3T3 fibroblasts, dose response, counter-screen, cell-based, ATP luminescence, mouse fibroblasts (AID 2010); type: functional;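 further: cells exposed to compound for about 90 hours before reading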
[6] = Luminescence Cell-Based Dose Response HTS to Identify Inhibitors of 5'UTR Stem-Loop Driven Prion Protein mRNA Translation in H4 Neuroglioblastoma Cells. [Related pubchem assays: 1827 (Project Summary), 1813 (Primary HTS)]; type: functional
H9c2 = assay: cells; type: functional, cell-based; conditions: Rattus norvegicus, H9c2, Myocardium;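 further: confirmatory concentration-response retest of ultra-high-throughput screening hits for modulation of myocardial damage; cell death induced by hydrogen peroxide oxidative stress; compound pretreatment for 60 min then peroxide exposure for 2 h; potency is for protecting the cells against peroxide damage rather than for killing them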
[7] = inhibitors of intracellular T. cruzi replication, confirmation, NIH3T3 host cells, beta-gal luminescence (AID 2044); type: functional, cell-based;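 further: intracellular parasites grown in NIH/3T3 mouse fibroblasts as host cells; luminescent beta-galactosidase reporter signal from transgenic T. cruzi replicating inside host cells; inhibitors lower the luminescence signal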
Vero [8] = assay: cells; type: functional; conditions: Chlorocebus sabaeus
[9] = inhibitors of SNCA 5'UTR-driven reporter translation, confirmation, H4 neuroglioma cells, luminescence (AID 1988); type: functional, cell-based
[10] = inhibitors of firefly luciferase expression or activity, dose response, H4 neuroglioma cells, luminescence (AID 1990); type: functional, cell-based
CAAX prenyl protease 2 [11] = target: CAAX prenyl protease 2 (Homo sapiens, UniProt Q9Y256); assay: human Rce1 protease inhibitors, dose response, biochemical, yeast membranes, quenched-peptide fluorescence, cherry-pick (AID 588849)
Sequence of CAAX prenyl protease 2 (Homo sapiens, UniProt Q9Y256) (Q9Y256 whole entry): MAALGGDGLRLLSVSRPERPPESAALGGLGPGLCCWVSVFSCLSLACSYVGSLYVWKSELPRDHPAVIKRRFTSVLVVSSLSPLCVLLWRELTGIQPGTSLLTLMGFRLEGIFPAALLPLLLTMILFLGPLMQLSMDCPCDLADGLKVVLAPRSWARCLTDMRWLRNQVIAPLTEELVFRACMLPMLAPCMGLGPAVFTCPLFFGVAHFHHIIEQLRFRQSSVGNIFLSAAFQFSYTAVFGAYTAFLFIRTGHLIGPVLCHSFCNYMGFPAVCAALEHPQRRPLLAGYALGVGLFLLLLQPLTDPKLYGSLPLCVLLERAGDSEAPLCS

CAAX prenyl protease 2 [12] = target: CAAX prenyl protease 2 (Saccharomyces cerevisiae S288c, UniProt Q03530); type: biochemical
Sequence of CAAX prenyl protease 2 (Saccharomyces cerevisiae S288c, UniProt Q03530) (Q03530 whole entry): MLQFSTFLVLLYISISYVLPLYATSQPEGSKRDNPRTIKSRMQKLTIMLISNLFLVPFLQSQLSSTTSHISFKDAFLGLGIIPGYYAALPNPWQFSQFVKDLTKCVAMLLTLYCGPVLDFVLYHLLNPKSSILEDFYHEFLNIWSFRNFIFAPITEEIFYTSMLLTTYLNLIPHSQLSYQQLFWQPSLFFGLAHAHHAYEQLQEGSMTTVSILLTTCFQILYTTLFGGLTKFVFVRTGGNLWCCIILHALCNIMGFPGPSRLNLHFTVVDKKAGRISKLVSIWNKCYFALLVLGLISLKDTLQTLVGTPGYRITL

Trypsin = Trypsin (Sus scrofa, UniProt P00761); assay: porcine trypsin inhibitors, dose response, selectivity assay for Rce1 protease inhibitor project, biochemical, quenched peptide fluorescence, cherry-pick (AID 488789)
Sequence of Trypsin (P00761 whole entry): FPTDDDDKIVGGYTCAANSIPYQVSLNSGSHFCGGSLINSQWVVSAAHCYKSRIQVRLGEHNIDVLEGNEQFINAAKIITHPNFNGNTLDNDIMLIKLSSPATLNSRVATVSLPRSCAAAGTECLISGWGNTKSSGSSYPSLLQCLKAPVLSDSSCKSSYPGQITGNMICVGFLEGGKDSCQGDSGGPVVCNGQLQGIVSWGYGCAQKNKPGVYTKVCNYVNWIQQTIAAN

[13] = target: T2, Ubiquitin-conjugating enzyme E2 N (Homo sapiens, UniProt P61088); type: functional;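 further: Dose-response confirmation in a TR-FRET assay detecting UBC13-driven polyubiquitin chain formation, inhibition measured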
T2 sequence (P61088 whole entry): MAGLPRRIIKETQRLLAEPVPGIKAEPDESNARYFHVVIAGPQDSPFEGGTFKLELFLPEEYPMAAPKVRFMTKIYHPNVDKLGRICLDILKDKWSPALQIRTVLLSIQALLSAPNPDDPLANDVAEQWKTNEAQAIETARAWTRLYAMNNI

Streptokinase A = target: T3, Streptokinase A (Streptococcus pyogenes serotype M1, UniProt P10520); assay: S. pyogenes streptokinase expression inhibitors, potency, dose response, plasminogen activation absorbance, OD405 (AID 1914); type: functional, Streptococcus pyogenes M1 GAS;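 further: secreted streptokinase activity via plasminogen activation per viability signal from cell pellet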
T3 sequence (P10520 whole entry): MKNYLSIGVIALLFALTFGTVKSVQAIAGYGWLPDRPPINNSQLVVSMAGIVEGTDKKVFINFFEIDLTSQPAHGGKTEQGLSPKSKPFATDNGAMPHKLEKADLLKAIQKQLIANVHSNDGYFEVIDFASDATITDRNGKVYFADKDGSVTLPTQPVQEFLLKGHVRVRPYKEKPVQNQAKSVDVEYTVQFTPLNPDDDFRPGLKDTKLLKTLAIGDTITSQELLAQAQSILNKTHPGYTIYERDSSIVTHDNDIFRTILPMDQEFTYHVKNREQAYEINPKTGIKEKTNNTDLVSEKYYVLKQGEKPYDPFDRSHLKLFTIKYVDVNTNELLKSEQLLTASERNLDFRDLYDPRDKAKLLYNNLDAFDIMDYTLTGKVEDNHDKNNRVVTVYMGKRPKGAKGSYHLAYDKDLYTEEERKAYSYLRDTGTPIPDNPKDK

Streptococcus = assay: Group A Streptococcus viability loss, dose response, counter-screen for streptokinase expression inhibitor project, luminescence, BacTiterGlo (AID 1915); type: functional, organism-based;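 further: potency for reduction of bacterial viability or growth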
Genome polyprotein = Genome polyprotein (dengue virus type 2, UniProt P29990); assay: Dengue-2 NS5 methyltransferase inhibitors, primary screen, biochemical, confirmation dose response (AID 588689); type: functional
Sequence of Genome polyprotein (P29990 2492-3391 limits assumed): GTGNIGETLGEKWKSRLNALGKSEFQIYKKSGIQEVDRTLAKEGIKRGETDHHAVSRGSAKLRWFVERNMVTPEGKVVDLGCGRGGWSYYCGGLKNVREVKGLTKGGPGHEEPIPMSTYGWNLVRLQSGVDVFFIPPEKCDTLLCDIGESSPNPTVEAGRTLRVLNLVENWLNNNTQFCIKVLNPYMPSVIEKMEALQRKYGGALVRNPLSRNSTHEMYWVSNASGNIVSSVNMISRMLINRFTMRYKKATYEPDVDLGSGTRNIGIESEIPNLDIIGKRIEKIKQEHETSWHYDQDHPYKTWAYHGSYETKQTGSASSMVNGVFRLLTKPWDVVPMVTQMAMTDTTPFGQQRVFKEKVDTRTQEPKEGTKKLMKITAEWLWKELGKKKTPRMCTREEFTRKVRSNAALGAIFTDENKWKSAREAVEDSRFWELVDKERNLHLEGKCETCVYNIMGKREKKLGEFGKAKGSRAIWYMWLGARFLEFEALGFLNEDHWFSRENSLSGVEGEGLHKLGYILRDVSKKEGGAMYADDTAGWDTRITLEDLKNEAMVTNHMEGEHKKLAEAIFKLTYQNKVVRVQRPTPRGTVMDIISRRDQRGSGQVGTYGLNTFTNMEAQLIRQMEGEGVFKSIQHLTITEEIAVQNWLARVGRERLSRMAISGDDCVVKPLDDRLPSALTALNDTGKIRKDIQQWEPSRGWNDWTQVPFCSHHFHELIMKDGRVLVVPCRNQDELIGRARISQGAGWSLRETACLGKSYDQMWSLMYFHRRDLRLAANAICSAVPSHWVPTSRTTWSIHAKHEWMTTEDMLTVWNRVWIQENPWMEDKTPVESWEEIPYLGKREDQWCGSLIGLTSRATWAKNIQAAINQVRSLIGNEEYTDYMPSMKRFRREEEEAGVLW

[14] = tested on: Streptococcus sp. 'group A'; assay: growth inhibition of control SK(-) GAS strain, dose response, counter-screen for streptokinase expression inhibitor project, luminescence, kanamycin, BacTiterGlo, confirmation (AID 1900); type: functional, organism-based
Hexokinase HKDC1 = target: T4, Hexokinase HKDC1 (Homo sapiens, UniProt Q2TB90); assay: HKDC1 hexokinase inhibitors, dose response, biochemical, W721R variant (AID 504729); type: functional
T4 sequence (Q2TB90 whole entry): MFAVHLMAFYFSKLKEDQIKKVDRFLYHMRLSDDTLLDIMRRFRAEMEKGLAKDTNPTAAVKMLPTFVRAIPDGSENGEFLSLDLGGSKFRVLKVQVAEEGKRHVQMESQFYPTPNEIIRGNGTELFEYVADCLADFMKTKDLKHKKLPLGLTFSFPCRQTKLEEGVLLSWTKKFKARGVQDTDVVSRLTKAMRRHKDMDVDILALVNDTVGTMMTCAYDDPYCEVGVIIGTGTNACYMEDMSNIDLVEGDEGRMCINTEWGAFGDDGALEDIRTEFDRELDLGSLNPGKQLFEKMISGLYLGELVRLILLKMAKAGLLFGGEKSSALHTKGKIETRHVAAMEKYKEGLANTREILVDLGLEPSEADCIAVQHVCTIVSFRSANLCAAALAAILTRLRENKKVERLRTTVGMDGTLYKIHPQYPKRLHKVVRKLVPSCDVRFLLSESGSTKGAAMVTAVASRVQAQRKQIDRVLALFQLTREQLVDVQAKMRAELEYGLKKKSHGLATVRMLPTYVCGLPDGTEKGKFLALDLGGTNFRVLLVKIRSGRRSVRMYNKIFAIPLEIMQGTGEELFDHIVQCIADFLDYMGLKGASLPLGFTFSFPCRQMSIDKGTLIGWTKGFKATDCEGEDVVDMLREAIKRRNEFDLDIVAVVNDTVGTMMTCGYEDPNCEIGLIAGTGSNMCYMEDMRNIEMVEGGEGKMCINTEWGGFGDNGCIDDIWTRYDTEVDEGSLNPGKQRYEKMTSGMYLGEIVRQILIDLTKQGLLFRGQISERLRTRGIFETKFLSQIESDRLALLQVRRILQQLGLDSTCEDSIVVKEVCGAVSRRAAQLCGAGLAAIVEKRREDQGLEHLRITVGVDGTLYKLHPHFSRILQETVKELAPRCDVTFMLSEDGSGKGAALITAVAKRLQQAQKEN

Vero [15] = assay: Vero cell cytotoxicity, cytotoxicity control for flavivirus capping enzyme inhibitors (AID 588742); type: functional; conditions: Chlorocebus sabaeus
[16] = target: T5, Microphthalmia-associated transcription factor (Homo sapiens, UniProt O75030); assay: TRPM1 promoter luciferase signal decrease, dose response, MITF inhibitor project, cell-based, SK-MEL-5, cherry-picked, set 3 (AID 493073); type: functional
T5 sequence (O75030 whole entry): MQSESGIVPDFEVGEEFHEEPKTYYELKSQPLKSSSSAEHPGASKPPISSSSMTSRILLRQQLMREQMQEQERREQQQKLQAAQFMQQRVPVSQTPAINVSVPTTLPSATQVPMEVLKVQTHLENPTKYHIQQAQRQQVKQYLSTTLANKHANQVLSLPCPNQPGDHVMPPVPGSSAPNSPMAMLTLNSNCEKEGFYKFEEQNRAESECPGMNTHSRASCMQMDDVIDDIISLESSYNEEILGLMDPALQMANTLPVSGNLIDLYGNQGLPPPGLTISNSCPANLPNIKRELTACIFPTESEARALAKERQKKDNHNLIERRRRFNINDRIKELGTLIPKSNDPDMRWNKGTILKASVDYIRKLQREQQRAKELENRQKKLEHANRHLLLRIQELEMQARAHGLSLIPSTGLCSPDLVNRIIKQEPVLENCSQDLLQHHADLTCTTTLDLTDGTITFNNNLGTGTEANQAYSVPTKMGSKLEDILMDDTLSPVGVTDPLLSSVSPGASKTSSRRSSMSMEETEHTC

HEK293 [17] = assay: cells; conditions: Homo sapiens
[18] = Fluorescence-based cell-based high throughput dose response assay for inhibitors of the interaction of nucleotide-binding oligomerization domain containing 2 (NOD2) and the receptor-interacting serine-threonine kinase 2 (RIPK2).; type: functional; conditions: Homo sapiens
Paired box protein Pax-8 = Paired box protein Pax-8 (Homo sapiens, UniProt Q06710); assay: inhibitors of PAX8-driven TPO luciferase reporter, dose response, RMG-I cells, cherry-pick (AID 687027); type: functional, cell-based;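 further: luciferase reporter driven by Pax8 target thyroperoxidase promoter measured by SteadyGlo luminescence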
Sequence of Paired box protein Pax-8 (Q06710 whole entry): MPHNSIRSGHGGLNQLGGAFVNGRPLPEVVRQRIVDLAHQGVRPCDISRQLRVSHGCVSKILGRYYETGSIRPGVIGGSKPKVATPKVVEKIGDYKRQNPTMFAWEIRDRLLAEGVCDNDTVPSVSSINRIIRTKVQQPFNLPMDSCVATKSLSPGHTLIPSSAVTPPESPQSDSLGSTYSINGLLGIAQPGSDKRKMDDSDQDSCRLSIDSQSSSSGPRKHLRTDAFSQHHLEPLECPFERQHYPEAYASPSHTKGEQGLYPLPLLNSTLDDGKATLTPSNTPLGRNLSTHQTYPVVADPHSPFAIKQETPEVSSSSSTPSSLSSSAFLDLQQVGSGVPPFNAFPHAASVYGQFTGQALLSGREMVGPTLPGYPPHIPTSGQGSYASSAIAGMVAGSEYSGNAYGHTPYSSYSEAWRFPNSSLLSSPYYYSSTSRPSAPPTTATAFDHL

HEK293 [19] = assay: cells; conditions: Homo sapiens; remark: listed apart in the source
A-375 [20] = assay: A375 melanoma cell viability reduction, dose response, counter-screen for MITF modulator project, cherry-pick samples, set 2 (AID 540335); type: functional, cell-based; conditions: Homo sapiens
A-375 [21] = assay: MITF: Counter assay: A375 proliferation Measured in Cell-Based System Using Plate Reader - 2084-03_Inhibitor_Dose_DryPowder_Activity. [Related pubchem assays (depositor defined):AID488944]; type: functional; conditions: Homo sapiens

T1 sequence (P11940 whole entry): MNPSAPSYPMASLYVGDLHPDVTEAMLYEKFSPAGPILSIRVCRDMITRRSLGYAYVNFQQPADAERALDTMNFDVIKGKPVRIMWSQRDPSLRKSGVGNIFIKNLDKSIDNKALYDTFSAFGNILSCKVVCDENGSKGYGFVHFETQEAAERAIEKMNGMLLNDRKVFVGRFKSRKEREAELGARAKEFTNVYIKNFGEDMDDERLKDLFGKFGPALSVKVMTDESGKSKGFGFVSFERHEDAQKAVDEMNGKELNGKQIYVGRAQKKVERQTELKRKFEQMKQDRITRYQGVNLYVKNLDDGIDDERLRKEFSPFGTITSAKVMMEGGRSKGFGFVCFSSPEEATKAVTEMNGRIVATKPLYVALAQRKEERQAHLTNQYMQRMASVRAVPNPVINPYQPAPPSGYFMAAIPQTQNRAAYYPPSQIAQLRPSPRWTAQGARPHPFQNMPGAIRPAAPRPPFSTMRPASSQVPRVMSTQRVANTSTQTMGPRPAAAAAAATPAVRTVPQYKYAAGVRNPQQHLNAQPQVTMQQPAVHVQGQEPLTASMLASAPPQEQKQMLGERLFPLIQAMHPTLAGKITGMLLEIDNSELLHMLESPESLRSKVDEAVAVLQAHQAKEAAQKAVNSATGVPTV

With `OC1=C2Sc3ccccc3N=C2CCC1` the IC50 [1] was 35.2 µM (inactive), the IC50 [2] was 59 µM (inactive) and the IC50 (Large T antigen) was 9.55 µM (active). The AC50 [3] was 8.45 µM (active).
In the case of `CC(Oc1cccc(Cl)c1)C(=O)Nc1nc(-c2ccccn2)cs1` (stereo unspecified), the IC50 (Vero [4]) is reported as > 25 µM (active), the EC50 [5] is reported as 6.81 µM (active) and the EC50 [6] is reported as 11.9 µM (active). For the same molecule, the IC50 (H9c2) was > 79 µM (inactive), the EC50 [7] was 0.822 µM (active) and the CC50 (Vero [8]) was 15.8 µM (active). The EC50 [9] was 9.63 µM (active) and the EC50 [10] was 10.4 µM (active).
With `COc1ccc(-c2cc(C(=O)NCCCN3CCCC3=O)c3ccccc3n2)cc1` the AC50 (CAAX prenyl protease 2 [11]) was 23.3 µM (active), the AC50 (CAAX prenyl protease 2 [12]) was 18 µM (active) and the AC50 (Trypsin) was 9.31 µM (active). For the same molecule, the IC50 [13] was > 20 µM (inactive).
With `COc1ccc(C(=O)c2coc3c2C(=O)C(=O)c2ccccc2-3)cc1` the EC50 (Streptokinase A) was > 150 µM (not active), the EC50 (Streptococcus) was 14.7 µM (active) and the IC50 (Genome polyprotein) was 34.5 µM (active). For the same molecule, the EC50 [14] was 1.84 µM (active), the IC50 (Hexokinase HKDC1) was 11.3 µM (active) and the CC50 (Vero [8]) was > 25 µM (active). The CC50 (Vero [15]) was > 40 µM (active).
In the case of `O=C(Cn1ncc(Cl)c(Cl)c1=O)Nc1ccc2c(c1)OCO2`, the AC50 [16] is reported as 13.2 µM (active), the EC50 (HEK293 [17]) is reported as > 59.6 µM (inactive) and the IC50 [18] is reported as 11.8 µM (inactive). The AC50 (Paired box protein Pax-8) was 4.07 µM (active) and the EC50 (HEK293 [19]) was > 59.6 µM (inactive).
For `Cc1ccc(-c2nc(CN3CCCCC3)cc(CN3CCCCC3)c2O)cc1`, the AC50 (CAAX prenyl protease 2 [11]) was 10.1 µM (active).
In the case of `NC(=NOC(=O)c1ccncc1)c1cccc([N+](=O)[O-])c1`, the AC50 (A-375 [20]) is reported as > 35 µM (active) and the AC50 (A-375 [21]) is reported as > 35 µM (active).
